Patent US12102686B2, “Delivery systems and methods for reactive hydroxyl-containing compounds” (priority 2018, dated 2024)

Experiment: Free curcumin stability and consumption in the presence of AAPH (absorbance at 420 nm, HPLC)
Assay type: physicochemical
Description: Periodic samples were collected and read at 420 nm using a Cary 50 UV-Vis Microplate Reader spectroscopy instrument to monitor absorbance of solution over 24 hours.

- time curcumin was stable in aqueous solution (no significant change in absorbance, no precipitation) (50 μg/mL curcumin in 0.1% (w/v) Tween 80 PBS (pH 7.4), 37° C., no AAPH): over 24 hours
- time after which the amount of curcumin decreases to 20% (10 mM AAPH): 4 h
- curcumin consumed (10 mM AAPH solution, within the first 8 hours): 90%
- time after which the amount of curcumin decreases to 20% (100 mM AAPH): 0.333 h
- time of finality of curcumin consumption, experimental (100 mM AAPH): 8 h
- curcumin consumed (100 mM AAPH solution, within the first hour): 90%
- curcuminoid consumption susceptibility by AAPH (HPLC peak) (versus demethoxycurcumin and bisdemethoxycurcumin, FIG. 3): diminished at a faster rate
Compound: COc1cc(/C=C/C(=O)CC(=O)/C=C/c2ccc(O)c(OC)c2)ccc1O [Curcumin]
